Data: ChEMBL document CHEMBL3576836, “Bioactive Metabolites from the Fruits of Psoralea corylifolia” (J Nat Prod, 2015)
Activity calls are given as the source filed them. No cut-off for these calls is given here.

Assays:
A549 = assay: Cytotoxicity against human A549 cells after 48 hrs by MTT assay; assay type: functional, cell-based; details: A549, 48 h
[1] = target: T1, NAD-dependent protein deacetylase sirtuin-1 (Homo sapiens) (UniProt Q96EB6); assay: Increase in SIRT1 (unknown origin) deacetylation activity at 10 uM
T1 sequence (whole entry): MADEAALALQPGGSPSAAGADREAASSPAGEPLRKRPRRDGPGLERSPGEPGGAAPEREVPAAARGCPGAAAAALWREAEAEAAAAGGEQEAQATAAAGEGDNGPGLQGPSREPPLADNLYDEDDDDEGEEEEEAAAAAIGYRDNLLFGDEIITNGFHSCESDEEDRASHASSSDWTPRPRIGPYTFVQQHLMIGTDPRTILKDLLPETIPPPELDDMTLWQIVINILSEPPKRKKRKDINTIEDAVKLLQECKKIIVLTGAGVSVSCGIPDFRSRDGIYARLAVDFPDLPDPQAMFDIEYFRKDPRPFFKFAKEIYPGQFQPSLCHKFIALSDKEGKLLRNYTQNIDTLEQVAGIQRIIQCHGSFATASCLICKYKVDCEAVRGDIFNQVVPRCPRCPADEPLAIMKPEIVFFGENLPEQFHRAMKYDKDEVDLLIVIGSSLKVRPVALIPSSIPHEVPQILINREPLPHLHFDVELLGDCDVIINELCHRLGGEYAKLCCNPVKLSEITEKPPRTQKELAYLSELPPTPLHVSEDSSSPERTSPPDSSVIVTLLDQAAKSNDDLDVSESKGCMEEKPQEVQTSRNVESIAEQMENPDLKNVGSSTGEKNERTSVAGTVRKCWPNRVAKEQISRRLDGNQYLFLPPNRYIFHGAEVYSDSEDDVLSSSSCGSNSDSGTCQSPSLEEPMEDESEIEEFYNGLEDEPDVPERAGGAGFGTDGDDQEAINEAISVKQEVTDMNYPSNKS

K562 = assay: Cytotoxicity against human K562 cells after 48 hrs by MTT assay; assay type: functional, cell-based; details: K562, 48 h
[2] = Inhibition of Streptococcus mutans OMZ65 recombinant sortase A delta-40 mutant using Dabcyl-QALPETGEE-Edans as substrate after 1 hr by fluorescence spectrophotometry
[3] = target: T1, NAD-dependent protein deacetylase sirtuin-1 (Homo sapiens); assay: Stimulation of SIRT1 (unknown origin) expressed in HEK293 cells coexpressing p53-Luc assessed as decrease in p53 transcriptional activity; assay type: cell-based
[4] = target: T1, NAD-dependent protein deacetylase sirtuin-1 (Homo sapiens); assay: Increase in SIRT1 (unknown origin) deacetylation activity
[5] = target: T1, NAD-dependent protein deacetylase sirtuin-1 (Homo sapiens); assay: Stimulation of SIRT1 (unknown origin) expressed in HEK293 cells assessed as increase in intracellular NAD+/NADH ratio; assay type: cell-based

Molecule | IC50 (A549) [µM] | Activity [1] | IC50 (K562) [µM] | IC50 [2] [µM] | Activity [3] | Activity [4] | Activity [5]
C=C(C)[C@H]1Cc2c(ccc3c2O/C(=C\c2ccc(O)c(O)c2)C3=O)O1 | > 10 | inactive | > 10 | – | – | – | –
Para-Hydroxymercuribenzoic acid | – | – | – | 118 | – | – | –
CC(C)(O)[C@@H]1Cc2cc3c(cc2O1)oc1c2ccc(O)cc2oc(=O)c31 | > 10 | inactive | > 10 | 138 | – | – | –
C=C[C@@](C)(/C=C/c1ccc(O)cc1)C/C=C/C(C)(C)O | > 10 | inactive | > 10 | – | – | – | –
CC(C)=CCc1cc(-c2coc3cc(O)ccc3c2=O)ccc1O [NEOBAVAISOFLAVONE] | > 10 | inactive | > 10 | 284 | – | – | –
Oc1ccc(O)cc1 [HYDROQUINONE] | > 10 | inactive | > 10 | – | – | – | –
C=C[C@@](C)(/C=C/c1ccc(O)cc1)CC[C@@H](O)C(C)(C)O | > 10 | inactive | > 10 | – | – | – | –
COc1cc2oc(-c3ccc(O)cc3)cc(=O)c2cc1CC=C(C)C [BAVACHININ] | > 10 | inactive | > 10 | – | – | – | –
CC(C)=CCc1cc2c(cc1O)O[C@H](c1ccc(O)cc1)CC2=O [BAVACHIN] | > 10 | inactive | > 10 | – | – | – | –
CC1(C)Oc2ccc(-c3coc4cc(O)ccc4c3=O)cc2C[C@@H]1O | > 10 | inactive | > 10 | 236 | – | – | –
CC(C)=CCc1cc(-c2coc3cc(O)cc(O)c3c2=O)ccc1O [CORYLIN] | > 10 | inactive | > 10 | 272 | – | – | –
O=Cc1ccc(O)cc1 [4-HYDROXYBENZALDEHYDE] | > 10 | inactive | > 10 | – | – | – | –
C=C[C@@](C)(/C=C/c1ccc(O)cc1)CCC(=O)C(=C)C | > 10 | inactive | > 10 | – | – | – | –
C=C(C)[C@@H]1Cc2cc3c(cc2O1)oc1c2ccc(O)cc2oc(=O)c31 | > 10 | inactive | > 10 | – | – | – | –
CC(C)=CCc1cc(C(=O)/C=C/c2ccc(O)cc2)c(O)cc1O [BROUSSOCHALCONE B] | > 10 | inactive | > 10 | – | – | – | –
C=C(C)[C@@H]1Cc2cc3c(cc2O1)O[C@H](c1ccc(O)cc1)CC3=O | > 10 | inactive | > 10 | – | – | – | –
CC1(C)Oc2ccc(-c3coc4cc(O)ccc4c3=O)cc2[C@@H](O)[C@@H]1O | > 10 | inactive | > 10 | – | – | – | –
CC(C)=CCc1c(O)ccc(C(=O)/C=C/c2ccc(O)cc2)c1O [ISOBAVACHALCONE] | > 10 | inactive | > 10 | – | – | – | –
CC(C)(O)[C@H]1Cc2c(ccc3c2O/C(=C\c2ccc(O)c(O)c2)C3=O)O1 | > 10 | Active | > 10 | 209 | Dose-dependent effect | Dose-dependent effect | Dose-dependent effect
C=C[C@@](C)(/C=C/c1ccc(O)cc1)CCC1OC1(C)C (stereo not given in full) | > 10 | inactive | > 10 | – | – | – | –
CC(C)(O)c1cc2c3c(ccc2o1)C(=O)C[C@@H](c1ccc(O)cc1)O3 | > 10 | Active | > 10 | 135 | Dose-dependent effect | Dose-dependent effect | Dose-dependent effect
CC(C)(O)[C@H]1Oc2cc3oc4c5ccc(O)cc5oc(=O)c4c3cc2[C@@H]1O | > 10 | inactive | > 10 | 119 | – | – | –
O=c1ccc2ccc3occc3c2o1 [ANGELICIN] | > 10 | inactive | > 10 | – | – | – | –
O=Cc1ccc(O)c(O)c1 [PROTOCATECHUALDEHYDE] | > 10 | inactive | > 10 | 514 | – | – | –
CC(C)(O)[C@@H]1Cc2cc3c(cc2O1)O[C@H](c1ccc(O)cc1)CC3=O | > 10 | inactive | > 10 | – | – | – | –
CC(C)(O)[C@@H]1Oc2ccc(-c3coc4cc(O)ccc4c3=O)cc2[C@H]1O | > 10 | Active | > 10 | – | Dose-dependent effect | Dose-dependent effect | Dose-dependent effect
O=c1ccc2cc3ccoc3cc2o1 [PSORALEN] | > 10 | inactive | > 10 | 330 | – | – | –
CC1(C)Oc2ccc(-c3coc4cc(O)ccc4c3=O)cc2[C@H](O)[C@@H]1O | > 10 | inactive | > 10 | – | – | – | –
